biological target: T1, human TRPV4 (Homo sapiens, UniProt Q9HBA0); test: FLIPR assay for hTRPV4 expressed in BHK cells: inhibition of Agonist Compound-induced calcium signal; type: cell-based; details: IC50, hTRPV4 in BHK/AC9 cells, FLIPR calcium signal, agonist at EC80; reported as range class
T1 construct: expressed in transfected cells; host or cells: BHK/AC9 cells transduced with BacMam virus
How it was run: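 BHK/AC9 cells transduced with BacMam human TRPV4 (MOI 78), plated 15,000 per well and cultured 24 h at 37° C. Loaded with 2 μM Fluo-4 AM plus 500 μM Brilliant Black in HBSS for 1-1.5 h at room temperature in the dark; intracellular calcium signal read by FLIPR fluorescence.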

T1 sequence (Q9HBA0 whole entry): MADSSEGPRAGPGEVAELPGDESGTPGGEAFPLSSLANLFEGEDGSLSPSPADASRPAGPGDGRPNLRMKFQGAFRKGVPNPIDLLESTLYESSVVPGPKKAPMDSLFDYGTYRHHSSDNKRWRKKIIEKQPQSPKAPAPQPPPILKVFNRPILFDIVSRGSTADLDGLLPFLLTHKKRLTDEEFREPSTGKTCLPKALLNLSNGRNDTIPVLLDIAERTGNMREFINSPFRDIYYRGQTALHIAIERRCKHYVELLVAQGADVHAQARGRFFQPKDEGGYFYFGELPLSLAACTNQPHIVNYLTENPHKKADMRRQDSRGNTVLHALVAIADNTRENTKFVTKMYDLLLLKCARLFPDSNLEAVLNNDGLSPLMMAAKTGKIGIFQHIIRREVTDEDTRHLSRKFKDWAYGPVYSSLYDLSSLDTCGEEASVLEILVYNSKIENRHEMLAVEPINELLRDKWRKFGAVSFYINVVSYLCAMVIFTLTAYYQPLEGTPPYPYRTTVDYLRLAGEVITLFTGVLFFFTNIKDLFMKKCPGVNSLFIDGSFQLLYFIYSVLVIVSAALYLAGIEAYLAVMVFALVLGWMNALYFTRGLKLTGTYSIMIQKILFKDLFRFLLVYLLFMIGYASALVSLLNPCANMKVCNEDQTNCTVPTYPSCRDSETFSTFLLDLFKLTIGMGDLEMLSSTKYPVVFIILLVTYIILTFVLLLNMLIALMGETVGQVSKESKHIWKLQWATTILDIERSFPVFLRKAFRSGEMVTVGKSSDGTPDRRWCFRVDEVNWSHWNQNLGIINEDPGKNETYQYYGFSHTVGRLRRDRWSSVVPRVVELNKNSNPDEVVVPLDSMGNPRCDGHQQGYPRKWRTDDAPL

Row | SMILES | IC50 [nM]
1 | C[Si](C)(C)C#Cc1ccc(S(=O)(=O)N2C[C@H](Oc3ccc(C#N)c(F)c3)[C@](O)(CO)C2)c(C#N)c1 [Example 221, 4-(((3S,4R)-1-((2-cyano-4-((trimethylsilyl)ethynyl)phenyl)sulfonyl)-4-hydroxy-4-(hydroxymethyl)pyrrolidin-3-yl)oxy)-2-fluorobenzonitrile] | 0.1 to 10

same assay, conditions: hTRPV4 in BHK/AC9 cells, FLIPR calcium signal, agonist at EC80; reported as range class; read-out: IC50

Row | IC50 [nM] | SMILES
2 | 0.1 to 10 | N#Cc1ccc(O[C@H]2CN(S(=O)(=O)c3ccc(C(F)(F)F)nc3Cl)C[C@@]2(O)CO)cc1F [Example 100, 4-(((3S,4R)-1-((2-chloro-6-(trifluoromethyl)pyridin-3-yl)sulfonyl)-4-hydroxy-4-(hydroxymethyl)pyrrolidin-3-yl)oxy)-2-fluorobenzonitrile]
3 | 10 to 100 | O=S(=O)(c1ccc(Cl)cc1Cl)N1C[C@H](Oc2ccc(C(F)(F)F)nc2)[C@](O)(CO)C1 [Example 35, (3R,4S)-1-((2,4-dichlorophenyl)sulfonyl)-3-(hydroxymethyl)-4-((6-(trifluoromethyl)pyridin-3-yl)oxy)pyrrolidin-3-ol]
4 | 10 to 100 | N#Cc1ccc(O[C@H]2CN(S(=O)(=O)c3c(Cl)cc(Cl)cc3Cl)C[C@@]2(O)CO)cn1 [Example 76, 5-(((3S,4R)-4-hydroxy-4-(hydroxymethyl)-1-((2,4,6-trichlorophenyl)sulfonyl)pyrrolidin-3yl)oxy)picolinonitrile]
5 | 0.1 to 10 | N#Cc1cc(Cl)ccc1S(=O)(=O)N1C[C@H](Oc2ccc(C(F)(F)F)cc2)[C@](O)(CO)C1 [Example 156, 5-chloro-2-(((3R,4S)-3-hydroxy-3-(hydroxymethyl)-4-(4-(trifluoromethyl)phenoxy)pyrrolidin-1-yl)sulfonyl)benzonitrile]
6 | 0.1 to 10 | C[C@H](O)[C@]1(O)CN(S(=O)(=O)c2ccc(Cl)cc2Cl)C[C@@H]1Oc1ccc(C#N)c(F)c1 [Example 204, 4-(((3S,4R)-1-((2,4-dichlorophenyl)sulfonyl)-4-hydroxy-4-((S)-1-hydroxyethyl)pyrrolidin-3-yl)oxy)-2-fluorobenzonitrile]
7 | 10 to 100 | CC#Cc1ccc(S(=O)(=O)N2C[C@H](Oc3ccc(C#N)c(F)c3)[C@](O)(CO)C2)cn1 [Example 223, 2-fluoro-4-(((3S,4R)-4-hydroxy-4-(hydroxymethyl)-1-((6-(prop-1-yn-1-yl)pyridin-3-yl)sulfonyl)pyrrolidin-3-yl)oxy)benzonitrile]
8 | 10 to 100 | N#Cc1ncccc1S(=O)(=O)N1C[C@H](Oc2ccc(Cl)cc2)[C@](O)(CO)C1 [Example 110, 3-(((3R,4S)-4-(4-chlorophenoxy)-3-hydroxy-3-(hydroxymethyl)pyrrolidin-1-yl)sulfonyl)picolinonitrile]
9 | 0.1 to 10 | N#Cc1ccc(O[C@H]2CN(S(=O)(=O)c3ccc(C(F)(F)F)cc3Cl)C[C@@]2(O)CO)cc1F [Example 63, 4-(((3S,4R)-1-((2-chloro-4-(trifluoromethyl)phenyl)sulfonyl)-4-hydroxy-4-(hydroxymethyl)pyrrolidin-3-yl)oxy)-2-fluorobenzonitrile]
10 | 0.1 to 10 | N#Cc1cc(Cl)ccc1S(=O)(=O)N1C[C@H](Oc2ccc(Cl)cc2)[C@@](O)(CO)C1 [Example 151, 5-chloro-2-(((3S,4S)-4-(4-chlorophenoxy)-3-hydroxy-3-(hydroxymethyl)pyrrolidin-1-yl)sulfonyl)benzonitrile]
11 | 10 to 100 | N#Cc1ccc(O[C@H]2CN(S(=O)(=O)c3ccc(C(F)(F)F)cn3)C[C@@]2(O)CO)cc1F [Example 84, 2-fluoro-4-(((3S,4R)-4-hydroxy-4-(hydroxymethyl)-1-((5-(trifluoromethyl)pyridin-2-yl)sulfonyl)pyrrolidin-3-yl)oxy)benzonitrile]
12 | 10 to 100 | N#Cc1ccc(O[C@H]2CN(S(=O)(=O)c3ccc(Cl)nc3)C[C@@]2(O)CO)cc1F [Example 91, 4-(((3S,4R)-1-((6-chloropyridin-3-yl)sulfonyl)-4-hydroxy-4-(hydroxymethyl)pyrrolidin-3-yl)oxy)-2-fluorobenzonitrile]

Second part, the molecule before the results:

Row | SMILES | IC50 [nM]
13 | CNC[C@]1(O)CN(S(=O)(=O)c2ccc(C(F)(F)F)cc2C#N)C[C@@H]1Oc1ccc(C#N)c(F)c1 [Example 237, 4-(((3S,4S)-1-((2-cyano-4-(trifluoromethyl)phenyl)sulfonyl)-4-hydroxy-4-((methylamino)methyl)pyrrolidin-3-yl)oxy)-2-fluorobenzonitrile, 2,2,2-trifluoroacetate] | 0.1 to 10
14 | N#Cc1cc(C(F)(F)F)ccc1S(=O)(=O)N1C[C@H](Oc2ccc(C#N)c(F)c2F)[C@](O)(CO)C1 [Example 15, 4-(((3S,4R)-1-((2-cyano-4-(trifluoromethyl)phenyl)sulfonyl)-4-hydroxy-4-(hydroxymethyl)pyrrolidin-3-yl)oxy)-2,3-difluorobenzonitrile] | 0.1 to 10
15 | COc1ccc(C#N)cc1O[C@H]1CN(S(=O)(=O)c2ccc(C(F)(F)F)cc2C#N)C[C@@]1(O)CO [Example 54, 2-(((3R,4S)-4-(5-cyano-2-methoxyphenoxy)-3-hydroxy-3-(hydroxymethyl)pyrrolidin-1-yl)sulfonyl)-5-(trifluoromethyl)benzonitrile] | 10 to 100
16 | N#Cc1ccc(O[C@H]2CN(S(=O)(=O)c3ccc(C(F)(F)F)cc3C#N)C[C@@]2(O)CO)c(C(F)(F)F)c1 [Example 17, 2-(((3R,4S)-4-(4-cyano-2-(trifluoromethyl)phenoxy)-3-hydroxy-3-(hydroxymethyl)pyrrolidin-1-yl)sulfonyl)-5-(trifluoromethyl)benzonitrile] | 0.1 to 10
17 | C[C@H](O)[C@]1(O)CN(S(=O)(=O)c2ccccc2C#N)C[C@@H]1Oc1ccc(C#N)c(F)c1 [Example 200, 4-(((3S,4R)-1-((2-cyanophenyl)sulfonyl)-4-hydroxy-4-((S)-1-hydroxyethyl)pyrrolidin-3-yl)oxy)-2-fluorobenzonitrile] | 10 to 100
18 | CC#Cc1ccc(S(=O)(=O)N2C[C@H](Oc3ccc(C#N)c(F)c3)[C@](O)(CO)C2)c(C#N)c1 [Example 219, 4-(((3S,4R)-1-((2-cyano-4-(prop-1-yn-1-yl)phenyl)sulfonyl)-4-hydroxy-4-(hydroxymethyl)pyrrolidin-3-yl)oxy)-2-fluorobenzonitrile] | 0.1 to 10
19 | N#Cc1cc(O)c(O[C@H]2CN(S(=O)(=O)c3ccc(C(F)(F)F)cc3C#N)C[C@@]2(O)CO)cc1F [Example 162, 4-(((3S,4R)-1-((2-cyano-4-(trifluoromethyl)phenyl)sulfonyl)-4-hydroxy-4-(hydroxymethyl)pyrrolidin-3-yl)oxy)-2-fluoro-5-hydroxybenzonitrile] | 0.1 to 10
20 | CC(C)C[C@H](O)[C@]1(O)CN(S(=O)(=O)c2ccc(Cl)cn2)C[C@@H]1Oc1ccc(C#N)c(F)c1 [Example 192, 4-(((3S,4R)-1-((5-chloropyridin-2-yl)sulfonyl)-4-hydroxy-4-((S)-1-hydroxy-3-methylbutyl)pyrrolidin-3-yl)oxy)-2-fluorobenzonitrile] | 10 to 100
21 | CCCOc1cc(C#N)ccc1O[C@H]1CN(S(=O)(=O)c2ccc(C(F)(F)F)cc2C#N)C[C@@]1(O)CO [Example 166, 2-(((3R,4S)-4-(4-cyano-2-propoxyphenoxy)-3-hydroxy-3-(hydroxymethyl)pyrrolidin-1-yl)sulfonyl)-5-(trifluoromethyl)benzonitrile] | 0.1 to 10
22 | N#Cc1ccc(O[C@H]2CN(S(=O)(=O)c3ccc(OC(F)(F)F)cc3C#N)C[C@@]2(O)CO)cc1F [compound 232, 4-(((3S,4R)-1-((2-cyano-4-(trifluoromethoxy)phenyl)sulfonyl)-4-hydroxy-4-(hydroxymethyl)pyrrolidin-3-yl)oxy)-2-fluorobenzonitrile] | 0.1 to 10
